Measured values: PMC8185074, “Anchor extension: a structure-guided approach to design cyclic peptides targeting enzyme active sites” (Nature Communications, 2021)
Peptide text beside a SMILES is read from it.

Assays:
Assay type in all cases: biochemical
[1] = molecular target: T1, HDAC2 (Homo sapiens, UniProt Q92769); assay: HDAC2 inhibition, full IC50 measurement (Reaction Biology; fluorogenic p53 peptide RHKK(Ac)AMC)
T1 construct: purchased Reaction Biology Corporation (assay run by the CRO)
Method in brief: (§1)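 Deacetylation of 50 μM RHKK(Ac)AMC is measured after 1 h at 30 °C in pH 8.0 Tris buffer (1% DMSO, 1 mg/ml BSA). Developer ends the reaction; the post-plateau 360/460 nm signal is fitted to IC50, averaging replicate measurements.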

[2] = molecular target: T2, HDAC8 (Homo sapiens, UniProt Q9BY41); assay: HDAC8 inhibition, full IC50 measurement (Reaction Biology; fluorogenic p53 peptide RHKK(Ac)AMC); conditions: t1/t2 replicates
T2 construct: purchased Reaction Biology Corporation (assay run by the CRO)
T2 sequence (Q9BY41 1-377): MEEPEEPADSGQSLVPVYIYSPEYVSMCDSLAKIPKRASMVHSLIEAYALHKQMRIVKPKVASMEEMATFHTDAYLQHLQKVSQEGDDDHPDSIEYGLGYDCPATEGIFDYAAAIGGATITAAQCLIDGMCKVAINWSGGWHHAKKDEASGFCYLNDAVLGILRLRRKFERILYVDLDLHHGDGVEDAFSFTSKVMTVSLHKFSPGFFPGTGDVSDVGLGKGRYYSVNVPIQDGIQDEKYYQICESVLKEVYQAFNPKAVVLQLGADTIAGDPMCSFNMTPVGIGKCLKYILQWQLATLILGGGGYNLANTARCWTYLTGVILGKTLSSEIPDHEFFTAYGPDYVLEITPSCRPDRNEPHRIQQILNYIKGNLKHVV
Method in brief: as §1

[3] = molecular target: T3, HDAC1 (Homo sapiens, UniProt Q13547); assay: HDAC1 inhibition, full IC50 measurement (Reaction Biology; fluorogenic p53 peptide RHKK(Ac)AMC); conditions: t1/t2 replicates
T3 construct: purchased Reaction Biology Corporation (assay run by the CRO)
Method in brief: as §1

[4] = peptide conc. 1.00E-05 M, listed as des2.2.0_t1
[5] = peptide conc. 1.00E-05 M, listed as des2.2.0_t2
[6] = peptide conc. 1.11E-06 M, listed as des2.2.0_t1
[7] = peptide conc. 1.11E-06 M, listed as des2.2.0_t2
[8] = peptide conc. 1.23E-07 M, listed as des2.2.0_t1
[9] = peptide conc. 1.23E-07 M, listed as des2.2.0_t2
[10] = peptide conc. 1.37E-08 M, listed as des2.2.0_t1
[11] = peptide conc. 1.37E-08 M, listed as des2.2.0_t2
[12] = peptide conc. 1.52E-09 M, listed as des2.2.0_t1
[13] = peptide conc. 1.52E-09 M, listed as des2.2.0_t2
[14] = peptide conc. 3.33E-06 M, listed as des2.2.0_t1
[15] = peptide conc. 3.33E-06 M, listed as des2.2.0_t2
[16] = peptide conc. 3.70E-07 M, listed as des2.2.0_t1
[17] = peptide conc. 3.70E-07 M, listed as des2.2.0_t2
[18] = peptide conc. 4.12E-08 M, listed as des2.2.0_t1
[19] = peptide conc. 4.12E-08 M, listed as des2.2.0_t2
[20] = peptide conc. 4.57E-09 M, listed as des2.2.0_t1
[21] = peptide conc. 4.57E-09 M, listed as des2.2.0_t2
[22] = peptide conc. 5.08E-10 M, listed as des2.2.0_t1
[23] = peptide conc. 5.08E-10 M, listed as des2.2.0_t2

T3 sequence (Q13547 whole entry): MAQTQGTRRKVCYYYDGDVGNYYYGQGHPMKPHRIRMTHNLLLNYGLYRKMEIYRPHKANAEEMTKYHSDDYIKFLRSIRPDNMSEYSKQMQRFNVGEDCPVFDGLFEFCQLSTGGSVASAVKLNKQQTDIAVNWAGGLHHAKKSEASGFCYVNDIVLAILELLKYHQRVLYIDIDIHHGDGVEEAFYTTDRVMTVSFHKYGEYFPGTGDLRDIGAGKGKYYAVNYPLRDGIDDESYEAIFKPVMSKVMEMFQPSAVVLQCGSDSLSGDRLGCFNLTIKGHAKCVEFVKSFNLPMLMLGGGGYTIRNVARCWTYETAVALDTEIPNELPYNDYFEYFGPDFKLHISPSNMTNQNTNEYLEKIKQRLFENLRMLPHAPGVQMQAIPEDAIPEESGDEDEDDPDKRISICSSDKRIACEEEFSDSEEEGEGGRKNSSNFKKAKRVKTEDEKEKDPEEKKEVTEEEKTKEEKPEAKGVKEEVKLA
T1 sequence (Q92769 whole entry): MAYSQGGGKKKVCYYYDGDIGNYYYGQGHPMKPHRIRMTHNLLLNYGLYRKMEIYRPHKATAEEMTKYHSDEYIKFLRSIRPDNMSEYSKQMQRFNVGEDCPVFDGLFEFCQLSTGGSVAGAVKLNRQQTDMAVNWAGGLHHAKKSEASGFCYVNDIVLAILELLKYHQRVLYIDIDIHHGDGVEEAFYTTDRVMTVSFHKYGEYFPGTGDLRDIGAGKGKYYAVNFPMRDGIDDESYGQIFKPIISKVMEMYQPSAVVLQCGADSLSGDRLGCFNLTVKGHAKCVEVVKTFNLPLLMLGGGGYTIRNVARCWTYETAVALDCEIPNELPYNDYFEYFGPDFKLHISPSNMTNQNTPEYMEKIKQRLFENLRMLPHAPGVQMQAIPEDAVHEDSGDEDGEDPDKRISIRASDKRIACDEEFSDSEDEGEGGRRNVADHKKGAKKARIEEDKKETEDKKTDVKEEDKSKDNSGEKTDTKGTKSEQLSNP

CC(C)C[C@H]1NC(=O)[C@H](Cc2c[nH]c3ccccc23)NC(=O)[C@H](CCCCCS)NC(=O)[C@@H](Cc2ccc(O)cc2)NC(=O)[C@@H](C(C)C)NC(=O)[C@H](Cc2c[nH]cn2)NC(=O)CNC(=O)CNC(=O)[C@@H](CO)NC1=O [des2.2.0, SHA-Trp-dLeu-dSer-Gly-Gly-His-dVal-dTyr] (HELM PEPTIDE1{G.G.H.[dV].[dY].[O=C([C@H](CCCCCS)N[*:1])[*:2]].W.[dL].[dS]}$PEPTIDE1,PEPTIDE1,1:R1-9:R2$$$V2.0) was tested, and the “HDAC2 activity raw data (signal)” value ([1]; Conc. 1.00E-05 M, t1) was 686926, the “HDAC2 activity raw data (signal)” value ([1]; Conc. 1.00E-05 M, t2) was 755168 and the “HDAC2 activity raw data (signal)” value ([1]; Conc. 1.11E-06 M, t1) was 808545. The “HDAC2 activity raw data (signal)” value ([1]; Conc. 1.11E-06 M, t2) was 1100762, the “HDAC2 activity raw data (signal)” value ([1]; Conc. 1.23E-07 M, t1) was 837329 and the “HDAC2 activity raw data (signal)” value ([1]; Conc. 1.23E-07 M, t2) was 1005687. The “HDAC2 activity raw data (signal)” value ([1]; Conc. 1.37E-08 M, t1) was 715440, the “HDAC2 activity raw data (signal)” value ([1]; Conc. 1.37E-08 M, t2) was 821926 and the “HDAC2 activity raw data (signal)” value ([1]; Conc. 1.52E-09 M, t1) was 554743. The “HDAC2 activity raw data (signal)” value ([1]; Conc. 1.52E-09 M, t2) was 656599, the “HDAC2 activity raw data (signal)” value ([1]; Conc. 3.33E-06 M, t1) was 690169 and the “HDAC2 activity raw data (signal)” value ([1]; Conc. 3.33E-06 M, t2) was 996724. For the same compound, the “HDAC2 activity raw data (signal)” value ([1]; Conc. 3.70E-07 M, t1) was 822571, the “HDAC2 activity raw data (signal)” value ([1]; Conc. 3.70E-07 M, t2) was 1061380 and the “HDAC2 activity raw data (signal)” value ([1]; Conc. 4.12E-08 M, t1) was 840443. For the same compound, the “HDAC2 activity raw data (signal)” value ([1]; Conc. 4.12E-08 M, t2) was 955487, the “HDAC2 activity raw data (signal)” value ([1]; Conc. 4.57E-09 M, t1) was 679123 and the “HDAC2 activity raw data (signal)” value ([1]; Conc. 4.57E-09 M, t2) was 728514. The “HDAC2 activity raw data (signal)” value ([1]; Conc. 5.08E-10 M, t1) was 632244, the “HDAC2 activity raw data (signal)” value ([1]; Conc. 5.08E-10 M, t2) was 668167 and the “HDAC8 activity raw data (signal)” value [2, 4] was 365553. For the same compound, the “HDAC8 activity raw data (signal)” value [2, 5] was 330727, the “HDAC8 activity raw data (signal)” value [2, 6] was 850929 and the “HDAC8 activity raw data (signal)” value [2, 7] was 824009. The “HDAC8 activity raw data (signal)” value [2, 8] was 979654, the “HDAC8 activity raw data (signal)” value [2, 9] was 1006503 and the “HDAC8 activity raw data (signal)” value [2, 10] was 1072008. For the same compound, the “HDAC8 activity raw data (signal)” value [2, 11] was 1101244, the “HDAC8 activity raw data (signal)” value [2, 12] was 927307 and the “HDAC8 activity raw data (signal)” value [2, 13] was 984830. The “HDAC8 activity raw data (signal)” value [2, 14] was 572630, the “HDAC8 activity raw data (signal)” value [2, 15] was 528648 and the “HDAC8 activity raw data (signal)” value [2, 16] was 865883. The “HDAC8 activity raw data (signal)” value [2, 17] was 851036, the “HDAC8 activity raw data (signal)” value [2, 18] was 959123 and the “HDAC8 activity raw data (signal)” value [2, 19] was 1003485. For the same compound, the “HDAC8 activity raw data (signal)” value [2, 20] was 938538, the “HDAC8 activity raw data (signal)” value [2, 21] was 927098 and the “HDAC8 activity raw data (signal)” value [2, 22] was 862623. The “HDAC8 activity raw data (signal)” value [2, 23] was 898356, the “HDAC1 activity raw data (signal)” value [3, 4] was 393754 and the “HDAC1 activity raw data (signal)” value [3, 5] was 398456. For the same compound, the “HDAC1 activity raw data (signal)” value [3, 6] was 771529, the “HDAC1 activity raw data (signal)” value [3, 7] was 714587 and the “HDAC1 activity raw data (signal)” value [3, 8] was 815475. The “HDAC1 activity raw data (signal)” value [3, 9] was 811874, the “HDAC1 activity raw data (signal)” value [3, 10] was 879707 and the “HDAC1 activity raw data (signal)” value [3, 11] was 762845. The “HDAC1 activity raw data (signal)” value [3, 12] was 835131, the “HDAC1 activity raw data (signal)” value [3, 13] was 788807 and the “HDAC1 activity raw data (signal)” value [3, 14] was 631956. The “HDAC1 activity raw data (signal)” value [3, 15] was 567009, the “HDAC1 activity raw data (signal)” value [3, 16] was 777508 and the “HDAC1 activity raw data (signal)” value [3, 17] was 771678. The “HDAC1 activity raw data (signal)” value [3, 18] was 776525, the “HDAC1 activity raw data (signal)” value [3, 19] was 821518 and the “HDAC1 activity raw data (signal)” value [3, 20] was 820973. The “HDAC1 activity raw data (signal)” value [3, 21] was 805068, the “HDAC1 activity raw data (signal)” value [3, 22] was 825935 and the “HDAC1 activity raw data (signal)” value [3, 23] was 859992.
